{
  "source": "paper PMC7915588",
  "about": "“Polyphyllin D Shows Anticancer Effect through a Selective Inhibition of Src Homology Region 2-Containing Protein Tyrosine Phosphatase-2 (SHP2)” (Molecules, 2021)",
  "experiment_in_all_cases": "biochemical",
  "set-up_in_all_cases": "Fluorogenic phosphatase assay, DiFMUP hydrolysis by recombinant PTPs, initial velocity, Ex/Em 355/460 nm",
  "conditions_in_all_cases": "read-out: Inhibition by 20 µM polyphyllin D (%)",
  "key": {"PTPN22 (LYP)": {"biological_target": "T1, PTPN22 (LYP) (Homo sapiens, UniProt Q9Y2R2)", "T1 construct": "1-326", "T1 sequence (Q9Y2R2 1-807)": "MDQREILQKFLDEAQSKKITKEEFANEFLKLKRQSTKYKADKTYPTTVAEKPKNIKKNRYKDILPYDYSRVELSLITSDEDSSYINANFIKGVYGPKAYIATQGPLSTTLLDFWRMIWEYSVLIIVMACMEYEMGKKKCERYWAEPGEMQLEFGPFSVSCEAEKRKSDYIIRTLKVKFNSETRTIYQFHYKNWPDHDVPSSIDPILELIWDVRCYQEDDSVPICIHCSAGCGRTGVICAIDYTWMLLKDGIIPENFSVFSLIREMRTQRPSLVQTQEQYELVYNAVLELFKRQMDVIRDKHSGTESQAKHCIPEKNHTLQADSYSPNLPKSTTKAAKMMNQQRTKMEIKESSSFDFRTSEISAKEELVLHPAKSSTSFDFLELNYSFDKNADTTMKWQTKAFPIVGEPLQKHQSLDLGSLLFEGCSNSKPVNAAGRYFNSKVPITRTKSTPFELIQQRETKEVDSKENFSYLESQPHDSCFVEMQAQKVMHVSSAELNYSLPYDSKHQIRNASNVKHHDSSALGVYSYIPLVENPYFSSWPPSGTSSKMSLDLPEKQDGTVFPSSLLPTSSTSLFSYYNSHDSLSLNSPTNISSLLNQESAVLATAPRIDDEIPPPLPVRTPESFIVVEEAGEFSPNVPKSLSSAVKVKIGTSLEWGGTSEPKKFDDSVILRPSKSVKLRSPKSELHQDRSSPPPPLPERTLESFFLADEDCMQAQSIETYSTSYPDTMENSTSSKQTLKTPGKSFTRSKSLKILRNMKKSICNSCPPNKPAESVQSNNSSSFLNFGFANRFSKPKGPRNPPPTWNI", "protocol": "(§1) Enzymatic reactions were initiated by the addition of SHP2 (final concentration of 10 nM) to a solution of each of the 658 phytochemical compounds (final concentration of 20 µM) in reaction buffer (20 mM bis-tris pH 6.0, 150 mM NaCl, 2.5 mM dithiothreitol, and 0.01% Triton X-100) containing DiFMUP (final concentration of 140 µM). Changes in the fluorescence intensities were measured continuously for 10 min at Ex/Em = 355/460 nm on a VictorTM X4 multilabel plate reader. Enzyme inhibition was estimated by comparing the reaction velocity in the presence of each compound with that in the absence of any compound. Inhibition of the other PTPs was measured in the same way. Next, we established a screening strategy using a DiFMUP substrate to identify a natural product that inhibits SHP2 activity. Initially, we screened 658 compounds at 20 µM using a 96-well plate system (Figure 2A). […] The selected compounds were tested at 20 µM for SHP2 inhibition, and 14 additional non-receptor-type PTPs (PTP1B, TCPTP, PTPH1, STEP, SHP1, HePTP, PTP-MEG2, PTP-PEST, PTP-BAS, PTP36, PTP-HSCF, PTPD1, LYP, and HD-PTP) were used to investigate the inhibition selectivity. The results were visualized using a heat map analysis by GraphPad Prism (Figure 2B and Table S2 in Supplementary Materials). To identify new SHP2 anticancer natural products, we first performed cloning to express SHP2 protein and then purified it. PTPN11 (Gene ID: 5781) encoding human SHP2 (amino acids sequences 1 to 526) with several extra amino acids were cloned into the MBP-pET 28a (+) vector, which was successfully used to overexpress PTPs with enhanced solubility in an Escherichia coli expression system. Information on amino acids for 15 non-receptor-type PTPs including SHP2 is summarized in Table S3 in the Supplementary Materials. SHP2 was overexpressed in RosettaTM (DE3) and purified using a metal affinity resin (Figure S1 in Supplementary Materials). […] The kcat, KM, and kcat/KM values were determined to be 270 min^−1, 70 μM, and 3.9 μM^−1min^−1, respectively, using the Lineweaver–Burk plot analysis (Table S1 in Supplementary Materials)."}, "PTPN23 (HD-PTP)": {"biological_target": "T2, PTPN23 (HD-PTP) (Homo sapiens, UniProt Q9H3S7)", "T2 construct": "1179-1463", "T2 sequence (Q9H3S7 whole entry)": "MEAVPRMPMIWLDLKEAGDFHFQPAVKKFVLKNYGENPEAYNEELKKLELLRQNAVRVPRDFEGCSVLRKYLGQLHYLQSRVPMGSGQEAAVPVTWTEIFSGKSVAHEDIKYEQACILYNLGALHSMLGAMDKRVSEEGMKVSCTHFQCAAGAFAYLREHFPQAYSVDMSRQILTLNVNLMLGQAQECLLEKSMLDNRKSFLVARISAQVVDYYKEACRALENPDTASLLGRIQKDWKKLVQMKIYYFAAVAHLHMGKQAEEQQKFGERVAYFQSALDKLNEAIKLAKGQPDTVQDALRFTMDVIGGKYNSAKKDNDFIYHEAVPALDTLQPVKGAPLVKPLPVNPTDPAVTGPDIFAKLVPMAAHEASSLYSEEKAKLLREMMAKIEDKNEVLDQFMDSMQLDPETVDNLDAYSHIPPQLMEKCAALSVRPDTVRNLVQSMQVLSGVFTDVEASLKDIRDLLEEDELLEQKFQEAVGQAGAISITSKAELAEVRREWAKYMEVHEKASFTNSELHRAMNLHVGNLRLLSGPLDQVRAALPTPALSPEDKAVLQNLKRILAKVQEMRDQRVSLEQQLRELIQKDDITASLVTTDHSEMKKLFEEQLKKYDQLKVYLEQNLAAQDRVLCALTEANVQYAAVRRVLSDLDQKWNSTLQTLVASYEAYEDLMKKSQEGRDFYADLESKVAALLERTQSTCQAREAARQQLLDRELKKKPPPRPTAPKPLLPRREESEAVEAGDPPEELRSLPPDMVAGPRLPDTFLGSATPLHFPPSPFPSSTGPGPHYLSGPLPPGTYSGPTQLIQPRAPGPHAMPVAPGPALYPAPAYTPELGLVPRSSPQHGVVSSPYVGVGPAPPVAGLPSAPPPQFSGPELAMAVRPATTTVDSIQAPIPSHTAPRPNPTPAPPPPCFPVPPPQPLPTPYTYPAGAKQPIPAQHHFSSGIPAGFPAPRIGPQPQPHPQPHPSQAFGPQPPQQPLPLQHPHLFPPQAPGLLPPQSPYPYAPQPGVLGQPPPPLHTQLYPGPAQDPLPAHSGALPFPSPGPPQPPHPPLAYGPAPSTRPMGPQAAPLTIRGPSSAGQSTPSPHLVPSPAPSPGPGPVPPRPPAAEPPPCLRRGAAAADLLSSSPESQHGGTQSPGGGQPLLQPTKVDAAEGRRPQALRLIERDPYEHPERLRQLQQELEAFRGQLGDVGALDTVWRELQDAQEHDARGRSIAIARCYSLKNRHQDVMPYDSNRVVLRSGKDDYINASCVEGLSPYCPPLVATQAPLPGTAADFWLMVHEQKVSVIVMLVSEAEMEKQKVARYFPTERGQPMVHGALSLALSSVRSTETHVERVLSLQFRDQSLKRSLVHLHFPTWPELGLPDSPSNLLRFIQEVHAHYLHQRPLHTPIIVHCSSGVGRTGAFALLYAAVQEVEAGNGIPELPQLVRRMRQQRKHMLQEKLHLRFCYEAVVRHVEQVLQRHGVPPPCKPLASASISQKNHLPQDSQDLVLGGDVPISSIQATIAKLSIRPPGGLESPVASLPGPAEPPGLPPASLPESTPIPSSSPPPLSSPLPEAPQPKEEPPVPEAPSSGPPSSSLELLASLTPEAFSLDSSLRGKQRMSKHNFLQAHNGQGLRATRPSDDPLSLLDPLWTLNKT", "protocol": "as §1"}, "SHP1": {"biological_target": "T3, SHP1 (Homo sapiens, UniProt P29350)", "T3 construct": "gene PTPN6", "T3 sequence (P29350 whole entry)": "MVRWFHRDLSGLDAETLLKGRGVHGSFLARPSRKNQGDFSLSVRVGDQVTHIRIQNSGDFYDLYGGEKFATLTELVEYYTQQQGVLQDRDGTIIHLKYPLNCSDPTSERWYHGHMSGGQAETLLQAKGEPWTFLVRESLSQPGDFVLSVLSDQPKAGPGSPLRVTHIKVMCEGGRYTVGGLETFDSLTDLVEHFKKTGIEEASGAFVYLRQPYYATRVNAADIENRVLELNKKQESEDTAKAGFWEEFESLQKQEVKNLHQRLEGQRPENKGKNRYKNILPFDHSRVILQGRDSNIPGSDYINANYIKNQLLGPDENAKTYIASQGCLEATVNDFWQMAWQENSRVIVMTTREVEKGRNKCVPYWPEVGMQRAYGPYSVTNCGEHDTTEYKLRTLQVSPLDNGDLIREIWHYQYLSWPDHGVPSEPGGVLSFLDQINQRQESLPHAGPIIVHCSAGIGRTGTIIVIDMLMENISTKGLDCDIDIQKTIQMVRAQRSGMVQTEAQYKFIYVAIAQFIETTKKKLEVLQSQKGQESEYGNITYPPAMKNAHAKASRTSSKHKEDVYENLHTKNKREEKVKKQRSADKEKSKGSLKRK", "protocol": "as §1"}},
  "data": [
    {"smiles": "C[C@@H]1CC[C@@]2(OC1)O[C@H]1C[C@H]3[C@@H]4CC=C5C[C@@H](O[C@@H]6O[C@H](CO)[C@@H](O[C@@H]7O[C@@H](CO)[C@H](O)[C@H]7O)[C@H](O)[C@H]6O[C@@H]6O[C@@H](C)[C@H](O)[C@@H](O)[C@H]6O)CC[C@]5(C)[C@H]4CC[C@]3(C)[C@H]1[C@@H]2C", "note": "[polyphyllin D]", "values": [
      {"measurement": "inhibition at 20 µM", "setting": "PTPN22 (LYP)", "value": 0.1, "unit": "%"},
      {"measurement": "inhibition at 20 µM", "setting": "PTPN23 (HD-PTP)", "value": 0, "unit": "%"},
      {"measurement": "inhibition at 20 µM", "setting": "SHP1", "value": 0.1, "unit": "%"}
    ]}
  ]
}
